Where a name gives a salt, the structure may show the parent alone.
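Also: rho kinase enzyme reaction halted with EDTA, phospho- and non-phospho peptide separated for read-out, kinase activity inhibition derived across a dose-response series, DMSO under 2%.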

Chain of ROCK2 (O75116 whole entry, species assumed): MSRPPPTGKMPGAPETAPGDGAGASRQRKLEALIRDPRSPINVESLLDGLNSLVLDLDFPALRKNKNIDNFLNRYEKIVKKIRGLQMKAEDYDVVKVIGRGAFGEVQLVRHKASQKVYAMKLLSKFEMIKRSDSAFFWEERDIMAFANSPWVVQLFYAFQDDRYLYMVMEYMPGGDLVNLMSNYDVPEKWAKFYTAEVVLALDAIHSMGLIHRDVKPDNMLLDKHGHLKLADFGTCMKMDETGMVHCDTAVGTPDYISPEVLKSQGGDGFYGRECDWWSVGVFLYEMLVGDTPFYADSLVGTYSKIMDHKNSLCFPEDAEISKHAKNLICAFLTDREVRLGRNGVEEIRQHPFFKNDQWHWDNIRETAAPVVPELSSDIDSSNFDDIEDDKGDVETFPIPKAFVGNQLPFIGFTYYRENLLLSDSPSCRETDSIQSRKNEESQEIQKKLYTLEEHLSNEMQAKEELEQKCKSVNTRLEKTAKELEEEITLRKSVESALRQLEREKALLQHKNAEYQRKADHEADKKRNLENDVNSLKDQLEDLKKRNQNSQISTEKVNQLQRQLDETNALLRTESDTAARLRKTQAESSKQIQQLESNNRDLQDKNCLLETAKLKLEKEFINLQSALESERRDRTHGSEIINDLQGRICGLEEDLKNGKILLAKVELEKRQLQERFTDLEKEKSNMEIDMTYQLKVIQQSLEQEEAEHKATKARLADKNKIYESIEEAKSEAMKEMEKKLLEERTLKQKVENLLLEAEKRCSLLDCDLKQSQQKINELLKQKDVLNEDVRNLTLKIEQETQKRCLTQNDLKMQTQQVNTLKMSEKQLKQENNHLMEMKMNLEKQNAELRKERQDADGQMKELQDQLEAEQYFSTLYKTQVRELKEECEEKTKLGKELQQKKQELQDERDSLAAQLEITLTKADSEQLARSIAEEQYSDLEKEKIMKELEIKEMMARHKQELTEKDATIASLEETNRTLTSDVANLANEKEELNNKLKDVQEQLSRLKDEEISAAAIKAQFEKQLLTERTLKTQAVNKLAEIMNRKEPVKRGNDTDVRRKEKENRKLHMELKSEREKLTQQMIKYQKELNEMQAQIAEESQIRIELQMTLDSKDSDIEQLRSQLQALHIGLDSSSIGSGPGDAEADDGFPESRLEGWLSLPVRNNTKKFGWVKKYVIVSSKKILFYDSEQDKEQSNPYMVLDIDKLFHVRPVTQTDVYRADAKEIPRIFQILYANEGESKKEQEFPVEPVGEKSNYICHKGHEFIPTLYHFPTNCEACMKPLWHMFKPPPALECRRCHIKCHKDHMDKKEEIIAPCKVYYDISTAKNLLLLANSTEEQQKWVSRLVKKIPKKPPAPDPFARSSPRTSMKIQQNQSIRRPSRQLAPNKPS

This test has as its target ROCK2 (Homo sapiens (Human), UniProt O75116). Kind of test: biochemical.
Turning to `COc1nc(N2CCC(Nc3nc(C(C)(C)C)cs3)C2=O)ccc1-c1cn[nH]c1` (racemic) [Example 269, 3-((4-(tert-butyl)thiazol-2-yl)amino)-1-(6-methoxy-5-(1H-pyrazol-4-yl)pyridin-2-yl)pyrrolidin-2-one], the IC50 – broadly, the concentration needed to halve the response being measured – was in the range of 100 to 2200 nM.
To `Cc1cccc(NC2CCN(c3ccc(-c4cn[nH]c4)cc3)C2=O)c1` (centres unmarked) [Example 2, 1-(4-(1H-pyrazol-4-yl)phenyl)-3-(m-tolylamino)pyrrolidin-2-one] belongs 10 to 100 nM; to `CCc1nc(N2CCC(Nc3ccc(F)c(OC)c3)C2=O)ccc1-c1cn[nH]c1` (single isomer, unassigned) [Example 317, 1-(6-ethyl-5-(1H-pyrazol-4-yl)pyridin-2-yl)-3-((4-fluoro-3-methoxyphenyl)amino) pyrrolidin-2-one], < 10 nM.
`COc1nc(N2CCC(N3CCS(=O)(=O)CC3)C2=O)ccc1-c1cn[nH]c1` (racemic) [Example 280, 3-(1,1-dioxidothiomorpholino)-1-(6-methoxy-5-(1H-pyrazol-4-yl)pyridin-2-yl)pyrrolidin-2-one] returned an IC50 of 10 to 100 nM.
Turning to `CCOc1cc(N2CCC(Nc3cc(OC)ccc3F)C2=O)ccc1-c1cn[nH]c1` (single isomer, unassigned) [Example 40, 1-(3-ethoxy-4-(1H-pyrazol-4-yl)phenyl)-3-((2-fluoro-5-methoxyphenyl)amino)pyrrolidin-2-one], the 50% inhibitory concentration (IC50) lay in the range of 100 to 2200 nM.
Under `COc1nc(N2CCC(N3CCc4cccnc43)C2=O)ccc1-c1cn[nH]c1` (racemic) [Example 281, 3-(2,3-dihydro-1H-pyrrolo[2,3-b]pyridin-1-yl)-1-(6-methoxy-5-(1H-pyrazol-4-yl)pyridin-2-yl)pyrrolidin-2-one] stands 10 to 100 nM; under `COc1cccc(NC2CCN(c3ccc(-c4cn[nH]c4)c(C#N)c3)C2=O)c1` (single isomer, unassigned) [Example 378, 5-(3-((3-methoxyphenyl)amino)-2-oxopyrrolidin-1-yl)-2-(1H-pyrazol-4-yl)benzonitrile], 10 to 100 nM.
To `COc1nc(N2CCC(Nc3ccc(F)c(OCC4CC4)c3)C2=O)ccc1-c1cn[nH]c1` (single isomer, unassigned) [Example 217, 3-((3-(cyclopropylmethoxy)-4-fluorophenyl)amino)-1-(6-methoxy-5-(1H-pyrazol-4-yl)pyridin-2-yl)pyrrolidin-2-one] belongs 10 to 100 nM; to `COc1cccc(NC2CCN(c3ncc(-c4cn[nH]c4)c(OC)n3)C2=O)c1` (centres unmarked) [Example 132, 1-(4-Methoxy-5-(1H-pyrazol-4-yl)pyrimidin-2-yl)-3-((3-methoxyphenyl)amino) pyrrolidin-2-one], 10 to 100 nM; to `CCc1nc(N2CCC(Nc3ccc(F)c(OC)c3)C2=O)ccc1-c1cn[nH]c1` (single isomer, unassigned) [Example 318, 1-(6-ethyl-5-(1H-pyrazol-4-yl)pyridin-2-yl)-3-((4-fluoro-3-methoxyphenyl)amino) pyrrolidin-2-one], 10 to 100 nM.
Compound `COc1ccc(NC2CCN(c3ccc(-c4cn[nH]c4)c(OC)c3)C2=O)c(F)c1` (single isomer, unassigned) [Example 152, 3-((2-fluoro-4-methoxyphenyl)amino)-1-(3-methoxy-4-(1H-pyrazol-4-yl)phenyl) pyrrolidin-2-one] gave an IC50 of 100 to 2200 nM.
Under `COc1cc(NC2CCN(c3ccc(-c4cn[nH]c4)c(F)c3F)C2=O)ccc1F` (single isomer, unassigned) [Example 307, 1-(2,3-difluoro-4-(1H-pyrazol-4-yl)phenyl)-3-((4-fluoro-3-methoxyphenyl)amino)pyrrolidin-2-one] stands 10 to 100 nM.
`COc1cccc(N[C@@H]2CCN(c3ccc(-c4cn[nH]c4)cc3)C2=O)c1OC` [Example 385, (R)-1-(4-(1H-pyrazol-4-yl)phenyl)-3-((2,3-dimethoxyphenyl)amino)pyrrolidin-2-one] displayed an IC50 of 100 to 2200 nM.
Under `COc1cccc(NC2CCN(c3cc(C)c(-c4cn[nH]c4)cn3)C2=O)c1` (racemic) [Example 200, 3-((3-methoxyphenyl)amino)-1-(4-methyl-5-(1H-pyrazol-4-yl)pyridin-2-yl)pyrrolidin-2-one] stands 100 to 2200 nM.
For the compound `CCc1nc(N2CCC(Nc3cc(F)cc(OC)c3)C2=O)ccc1-c1cn[nH]c1` (single isomer, unassigned) [Example 316, 1-(6-ethyl-5-(1H-pyrazol-4-yl)pyridin-2-yl)-3-((3-fluoro-5-methoxyphenyl)amino) pyrrolidin-2-one], the IC50 was < 10 nM.
Under `COc1ccc(F)c(NC2CCN(c3ccc(-c4cn[nH]c4)cc3F)C2=O)c1` (single isomer, unassigned) [Example 340, 1-(2-fluoro-4-(1H-pyrazol-4-yl)phenyl)-3-((2-fluoro-5-methoxyphenyl)amino) pyrrolidin-2-one] stands 100 to 2200 nM.
To `COc1nc(N2CCC(Nc3cnn(C(C)C)c3)C2=O)ccc1-c1cn[nH]c1` (racemic) [Example 272, 3-((1-isopropyl-1H-pyrazol-4-yl)amino)-1-(6-methoxy-5-(1H-pyrazol-4-yl)pyridin-2-yl)pyrrolidin-2-one] belongs 100 to 2200 nM; to `COc1c(F)cccc1NC1CCN(c2ccc(-c3cn[nH]c3)cn2)C1=O` (single isomer, unassigned) [Example 90, 1-(5-(1H-pyrazol-4-yl)pyridin-2-yl)-3-((3-fluoro-2-methoxyphenyl)amino)pyrrolidin-2-one], 100 to 2200 nM.
To `COCc1cc(N2CCC(Nc3cc(F)cc(OC)c3)C2=O)ccc1-c1cn[nH]c1` (single isomer, unassigned) [Example 186, 3-((3-fluoro-5-methoxyphenyl)amino)-1-(3-(methoxymethyl)-4-(1H-pyrazol-4-yl)phenyl)pyrrolidin-2-one] belongs 10 to 100 nM.
In turn, `O=C1C(Nc2ccccc2)CCN1c1ccc(-c2cn[nH]c2)cc1` (centres unmarked) [Example 58, 1-(4-(1H-pyrazol-4-yl)phenyl)-3-(phenylamino)pyrrolidin-2-one] displayed a half-inhibitory concentration (IC50) of 10 to 100 nM.
To `COc1ccc(C(N)=O)c(NC2CCN(c3ccc(-c4cn[nH]c4)cc3)C2=O)c1` (racemic) [Example 324, 2-((1-(4-(1H-pyrazol-4-yl)phenyl)-2-oxopyrrolidin-3-yl)amino)-4-methoxybenzamide] belongs 100 to 2200 nM.
Under `CCc1nc(N2CCC(Nc3ccc(F)c(OCC4CC4)c3)C2=O)ccc1-c1cn[nH]c1` (single isomer, unassigned) [Example 212, 3-((3-(cyclopropylmelhoxy)-4-fluorophenyl)amino)-1-(6-ethyl-5-(1H-pyrazol-4-yl)pyridin-2-yl)pyrrolidin-2-one] stands 100 to 2200 nM.
To `COc1nc(N2CCC(Nc3cccc(-c4nnn[nH]4)c3)C2=O)ccc1-c1cn[nH]c1` (racemic) [Example 266, 3-((3-(1H-tetrazol-5-yl)phenyl)amino)-1-(6-methoxy-5-(1H-pyrazol-4-yl)pyridin-2-yl)pyrrolidin-2-one] belongs 10 to 100 nM; to `COc1ccc(C(=O)OC2CCN(c3ccc(-c4cn[nH]c4)cc3)C2=O)c(N)c1` (racemic) [Example 327, 1-(4-(1H-pyrazol-4-yl)phenyl)-2-oxopyrrolidin-3-yl2-amino-4-methoxybenzoate], 100 to 2200 nM; to `COc1cccc(NC2CCN(c3ccc(-c4c[nH]nc4C)c(OC)n3)C2=O)c1` (racemic) [Example 129, 1-(6-methoxy-5-(3-methyl-1H-pyrazol-4-yl)pyridin-2-yl)-3-((3-methoxyphenyl)amino)pyrrolidin-2-one], < 10 nM.
In the case of `COc1cccc(C2CCN(c3ccc(-c4cn[nH]c4)cc3)C2=O)c1` (centres unmarked) [Example 103, 1-(4-(1H-pyrazol-4-yl)phenyl)-3-(3-methoxyphenyl)pyrrolidin-2-one], the IC50 was < 10 nM.
To `COc1cccc(CC2CCN(c3ccc(-c4cn[nH]c4)cc3)C2=O)c1` (centres unmarked) [Example 93, 1-(4-(1H-pyrazol-4-yl)phenyl)-3-(3-methoxybenzyl)pyrrolidin-2-one] belongs 100 to 2200 nM; to `O=C1C(Nc2ccccc2)CCN1c1ccc(-c2cn[nH]c2)c(F)c1` (single isomer, unassigned) [Example 43, 1-(3-fluoro-4-(1H-pyrazol-4-yl)phenyl)-3-(phenylamino)pyrrolidin-2-one], < 10 nM; to `COc1cc(N2CCC(Nc3cccc(OC(C)C)c3)C2=O)ccc1-c1cn[nH]c1` (centres unmarked) [Example 71, 3-((3-isopropoxyphenyl)amino)-1-(3-methoxy-4-(1H-pyrazol-4-yl)phenyl)pyrrolidin-2-one, TFA], 10 to 100 nM.
Under `COc1c(F)cccc1NC1CCN(c2ccc(-c3cn[nH]c3)cn2)C1=O` (single isomer, unassigned) [Example 89, 1-(5-(1H-pyrazol-4-yl)pyridin-2-yl)-3-((3-fluoro-2-methoxyphenyl)amino) pyrrolidin-2-one] stands < 10 nM; under `COc1cc(NC2CCN(c3ccc(-c4cn[nH]c4)cc3F)C2=O)ccc1F` (single isomer, unassigned) [Example 330, 3-((4-fluoro-3-methoxyphenyl)amino)-1-(2-fluoro-4-(1H-pyrazol-4-yl)phenyl) pyrrolidin-2-one], 10 to 100 nM; under `COc1cc(F)cc(NC2CCN(c3ncc(-c4cn[nH]c4)cc3F)C2=O)c1` (single isomer, unassigned) [Example 359, 1-(3-fluoro-5-(1H-pyrazol-4-yl)pyridin-2-yl)-3-((3-fluoro-5-methoxyphenyl)amino) pyrrolidin-2-one], 100 to 2200 nM.
To `COc1cccc(N(C)C2CCN(c3ccc(-c4cn[nH]c4)cc3)C2=O)c1` (single isomer, unassigned) [Example 31, 1-(4-(1H-pyrazol-4-yl)phenyl)-3-((3-methoxyphenyl)(methyl)amino)pyrrolidin-2-one] belongs 100 to 2200 nM; to `COc1cccc(NC2CCN(c3ccc(-c4ccnc(N)c4)cc3)C2=O)c1` (single isomer, unassigned) [Example 76, 1-(4-(2-aminopyridin-4-yl)phenyl)-3-((3-methoxyphenyl)amino) pyrrolidin-2-one], 100 to 2200 nM; to `COc1cc(F)cc(NC2CCN(c3ccc(-c4cn[nH]c4)cn3)C2=O)c1` (centres unmarked) [Example 82, 1-(5-(1H-pyrazol-4-yl)pyridin-2-yl)-3-((3-fluoro-5-methoxyphenyl)amino)pyrrolidin-2-one], < 10 nM.

For the origin of these results see patent US10112929B2, “Lactams as inhibitors of rock” (BRISTOL-MYERS SQUIBB COMPANY, priority 2015, dated 2018).
